Read-outs that look alike come from different tables or passages of the source.
How the values were obtained:
MEK1 activated ERK1 = MEK1 activated ERK1 (Homo sapiens (Human), UniProt P27361); experiment: Omnia continuous-read kinase assay for potency against MEK1 activated ERK1; format: biochemical
Excerpt: Omnia Assay Protocol for Potency Assessment Against MEK1 Activated ERK1:
The protocol below describes continuous-read kinase assays to measure potency of compounds against activated ERK1 enzyme. The mechanics of the assay platform are best described by the vendor (Invitrogen, Carlsbad, Calif.) on their website at the following URL: invitrogen.com/site/us/en/home.html.
Briefly, a 1.25× stock of ERK1 enzyme (14-439-K) from Millipore (Billerica, Mass.), 5×ATP (AS001A) and ST17-Sox conjugated peptide substrate (KNZ1171C) were prepared in 1× kinase reaction buffer consisting of 20 mM Tris, pH 7.5, 5 mM MgCl2, 1 mM EGTA, 5 mM β-glycerophosphate, 5% glycerol (10× stock, KB002A) and 0.2 mM DTT. 10 μL of ATP/ST17-sox peptide substrate mix was combined with 0.5 μL volume of 100% DMSO and serially diluted compounds were prepared in 100% DMSO in a Corning (#3574) 384-well, white, non-binding surface microtiter plate (Corning, N.Y.). Kinase reactions were started with the addition of 40 μL of ERK1 solution and monitored every 71 seconds for 30-240 minutes at λex360/λem485 in a Synergy plate reader from BioTek (Winooski, Vt.). At the conclusion of each assay, progress curves from each well were examined for linear reaction kinetics and fit statistics (R^2, 95% confidence interval, absolute sum of squares). Initial velocity (0 minutes to ˜30+ minutes) from each reaction was determined from the slope of a plot of relative fluorescence units vs time (minutes or seconds) and then plotted against inhibitor concentration to estimate ^AppIC50 from log [Inhibitor] vs Response, Variable Slope model in GraphPad Prism from GraphPad Software (San Diego, Calif.).
[Reagent] used in optimized protocol:
[ERK1]=4 nM, [ATP]=50 μM, [ST17-Sox]=10 μM (ATP ^appKM 48 μM)
The results of this assay show the degree of inhibition of ERK activity, which is a direct measurement of inhibition of ERK activity. Results from this assay are reported in Table A under the column “ERK1 Omnia WT ATP KM IC50 (nM).”

Erk1 = Erk1 (Homo sapiens (Human), UniProt P27361); experiment: Protein Mass Modification Assay (intact protein MALDI); format: binding
Outline: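 Percent covalent modification comes from the intact-protein MALDI centroid mass shift, treated versus control, divided by compound MW. Before analysis, human Erk1 was exposed to compound at 10-fold excess over protein for 60 min at room temperature.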

[1] = MEK1 activated ERK1, WT, ATP at KM

Sequence of MEK1 activated ERK1 (P27361 whole entry): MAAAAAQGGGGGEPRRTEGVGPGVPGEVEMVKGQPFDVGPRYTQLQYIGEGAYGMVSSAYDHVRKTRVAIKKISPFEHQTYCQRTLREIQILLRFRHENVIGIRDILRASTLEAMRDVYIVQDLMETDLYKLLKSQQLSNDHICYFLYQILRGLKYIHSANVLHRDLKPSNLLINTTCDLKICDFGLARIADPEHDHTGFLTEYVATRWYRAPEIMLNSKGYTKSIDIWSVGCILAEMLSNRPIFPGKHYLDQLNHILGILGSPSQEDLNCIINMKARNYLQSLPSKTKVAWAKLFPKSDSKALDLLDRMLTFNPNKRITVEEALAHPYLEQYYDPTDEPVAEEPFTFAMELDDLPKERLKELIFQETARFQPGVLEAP
Sequence of Erk1 (P27361 whole entry, looked up): as the sequence (P27361 whole entry) above

SMILES	IC50 (MEK1 activated ERK1; [1])	ERK1 Mass Mod (%) (Erk1)	IC50 (MEK1 activated ERK1; read-out: ERK1 Omnia WT ATP KM IC50)
C=CC(=O)N(C)c1ccccc1Nc1nc(Nc2cc(C(=O)NOC)ccc2C#N)ncc1Cl [Compound I-197, 3-((5-chloro-4-((2-(N-methylacrylamido)phenyl)amino)pyrimidin-2-yl)amino)-4-cyano-N-methoxybenzamide]	> 1000 nM	E (provided a mass modification of ≧70%)	–
C=CC(=O)Nc1cc(C)ccc1Nc1nc(Nc2nc(O)ncc2Cl)ncc1C(F)(F)F [Compound I-363, N-(2-((2-((5-chloro-2-hydroxypyrimidin-4-yl)amino)-5-(trifluoromethyl)pyrimidin-4-yl)amino)-5-methylphenyl)acrylamide]	> 1000 nM	E (provided a mass modification of ≧70%)	–
C=CC(=O)Nc1ccccc1Nc1nc(N[C@H]2CCCN(C=O)C2)ncc1C(F)(F)F [Compound I-9, (S)—N-(2-((2-((1-formylpiperidin-3-yl)amino)-5-(trifluoromethyl)pyrimidin-4-yl)amino)phenyl)acrylamide]	< 100 nM	E (provided a mass modification of ≧70%)	–
C=CC(=O)Nc1ccccc1Nc1nc(NC2CCN(C=O)CC2)ncc1Cl [Compound I-124, N-(2-((5-chloro-2-((1-formylpiperidin-4-yl)amino)pyrimidin-4-yl)amino)phenyl) acrylamide]	< 100 nM	E (provided a mass modification of ≧70%)	–
C=CC(=O)Nc1cc(OC)ccc1Nc1nc(Nc2cc(OC)nc(N3CCN(C(C)=O)CC3)c2)ncc1C(F)(F)F [Compound I-91, N-(2-((2-((2-(4-Acetylpiperazin-1-yl)-6-methoxypyridin-4-yl)amino)-5-(trifluoromethyl)pyrimidin-4-yl)amino)-5-methoxyphenyl)acrylamide]	< 100 nM	E (provided a mass modification of ≧70%)	–
C=CC(=O)Nc1cc(C)ccc1Nc1nc(N[C@@H]2CCN(S(=O)(=O)C=C)C2)ncc1C(F)(F)F [Compound I-280, (R)—N-(5-Methyl-2-((5-(trifluoromethyl)-2-((1-(vinylsulfonyl)pyrrolidin-3-yl)amino)pyrimidin-4-yl)amino)phenyl)acrylamide]	> 1000 nM	E (provided a mass modification of ≧70%)	–
C=CC(=O)Nc1cc(OC)ccc1Nc1nc(Nc2ccc(N3CC[C@H](O)C3)cc2C#N)ncc1Cl [Compound I-165, (S)—N-(2-((5-chloro-2-((2-cyano-4-(3-hydroxypyrrolidin-1-yl)phenyl)amino)pyrimidin-4-yl)amino)-5-methoxyphenyl)acrylamide]	> 1000 nM	F (provided a mass modification of 31-69%)	–
C=CC(=O)N[C@@H]1CCCC[C@H]1Nc1nc(Nc2cc(C(=O)NOC)ccc2C)ncc1Cl [Compound I-190, 3-((4-(((1R,2R)-2-acrylamidocyclohexyl)amino)-5-chloropyrimidin-2-yl)amino)-N-methoxy-4-methylbenzamide]	> 1000 nM	F (provided a mass modification of 31-69%)	–
C=CC(=O)Nc1ccccc1Oc1nc(Nc2ccc(N3CCN(C(C)=O)CC3)cc2OC)ncc1F [Compound I-260, N-(2-((2-((4-(4-acetylpiperazin-1-yl)-2-methoxyphenyl)amino)-5-fluoropyrimidin-4-yl)oxy)phenyl)acrylamide]	> 1000 nM	G (proived a mass modification ≦30%)	–
C=CC(=O)Nc1ccccc1Nc1nc(N[C@H]2CCCN(C(=O)[C@@H](C)O)C2)ncc1Cl [Compound I-134, N-(2-((5-chloro-2-(((S)-1-((R)-2-hydroxypropanoyl)piperidin-3-yl)amino)pyrimidin-4-yl)amino)phenyl)acrylamide]	< 100 nM	E (provided a mass modification of ≧70%)	–
C=CC(=O)Nc1cc(OC)ccc1Oc1nc(Nc2ccc(N3CCC[C@@H]3CO)cc2OC)ncc1C(N)=O [Compound I-264, (R)-4-(2-acrylamido-4-methoxyphenoxy)-2-((4-(2-(hydroxymethyl)pyrrolidin-1-yl)-2-methoxyphenyl)amino)pyrimidine-5-carboxamide]	–	F (key: E: provided a mass modification of ≧70%; F: provided a mass modification of 31-69%; G: proived a mass modification ≦30%)	501 to 999 nM
NC(=O)c1ccccc1Nc1nc(N[C@H]2CCCN(C(=O)CO)C2)ncc1C(F)(F)F [Compound I-307, (S)-2-((2-((1-(2-hydroxyacetyl)piperidin-3-yl)amino)-5-(trifluoromethyl)pyrimidin-4-yl)amino)benzamide]	< 100 nM	G (proived a mass modification ≦30%)	–
C=CC(=O)Nc1ccccc1Nc1nc(Nc2cc(OC)nc(OC)c2)ncc1C(F)(F)F [Compound I-95, N-(2-((2-((2,6-Dimethoxypyridin-4-yl)amino)-5-(trifluoromethyl)pyrimidin-4-yl)amino)phenyl)acrylamide]	< 100 nM	E (provided a mass modification of ≧70%)	–
C=CC(=O)Nc1ccccc1Nc1nc(N[C@H]2CCCN(C(=O)CC)C2)ncc1Cl [Compound I-131, (S)—N-(2-((5-chloro-2-((1-propionylpiperidin-3-yl)amino)pyrimidin-4-yl)amino)phenyl)acrylamide]	< 100 nM	E (provided a mass modification of ≧70%)	–
CC(C)=CC(=O)c1ccccc1Oc1nc(Nc2cc(C(N)=O)ccc2C)ncc1Cl [Compound I-223, 3-((5-chloro-4-(2-(3-methylbut-2-enoyl)phenoxy)pyrimidin-2-yl)amino)-4-methylbenzamide]	> 1000 nM	E (provided a mass modification of ≧70%)	–
N#CNC(=O)c1ccccc1Nc1nc(N[C@H]2CCCN(C(=O)CO)C2)ncc1C(F)(F)F [Compound I-26, (S)—N-Cyano-2-((2-((1-(2-hydroxyacetyl)piperidin-3-yl)amino)-5-(trifluoromethyl)pyrimidin-4-yl)amino)benzamide]	> 1000 nM	G (proived a mass modification ≦30%)	–
C=CC(=O)Nc1cc(C)ccc1Nc1nc(Nc2cc(O)ncc2C)ncc1C(F)(F)F [Compound I-365, N-(2-((2-((2-hydroxy-5-methylpyridin-4-yl)amino)-5-(trifluoromethyl)pyrimidin-4-yl)amino)-5-methylphenyl)acrylamide]	> 1000 nM	E (provided a mass modification of ≧70%)	–
C=CC(=O)Nc1cc(C)ccc1Nc1nc(Nc2cc(OC)cnc2Cl)ncc1C(F)(F)F [Compound I-361, N-(2-((2-((2-chloro-5-methoxypyridin-3-yl)amino)-5-(trifluoromethyl)pyrimidin-4-yl)amino)-5-methylphenyl)acrylamide]	< 100 nM	E (provided a mass modification of ≧70%)	–
C=CC(=O)Nc1ccccc1Nc1nc(Nc2ccc(OCCOC)cc2OC)ncc1Cl [Compound I-182, N-(2-((5-chloro-2-((2-methoxy-4-(2-methoxyethoxy)phenyl)amino)pyrimidin-4-yl)amino)phenyl)acrylamide]	> 1000 nM	E (provided a mass modification of ≧70%)	–
C=CC(=O)Nc1ccccc1Nc1nc(Nc2ccnc(NC)c2)ncc1C(F)(F)F [Compound I-321, N-(2-((2-((2-(methylamino)pyridin-4-yl)amino)-5-(trifluoromethyl)pyrimidin-4-yl)amino)phenyl)acrylamide]	> 1000 nM	E (provided a mass modification of ≧70%)	–

Source: patent publication US9796700B2 (Celgene CAR LLC, priority 2013, dated 2017)
